Values of other authors in PMC11915035, “Characterization of [^3H]Propionylated Human Peptide YY-A New Probe for Neuropeptide Y Y2 Receptor Binding Studies” (ACS Pharmacology & Translational Science, 2025).
Where two headings read alike, the source gives them in different places. Each block holds one molecule with its values, some of them ahead of it.

Key:
pY2R = settings: COS-7 pY2R; 50 mM HEPES, 0 mM Na+; species of peptide not indicated; ref Rose et al.[2]
Source text: (§1) Table 1 Reported Peptidic Radioligands Used for Y2R Binding Studies | column: Kd [nM]

Y2R = settings: read-out: literature IC50, sodium-containing buffer
Y1R, Y2R, Y4R, Y5R = settings: ref 2−4
Source text: Activation of all four receptor subtypes is induced by the homologous neuropeptides NPY, peptide YY (PYY), and pancreatic polypeptide (PP).[1]

[1] = target: rat hippocampal membrane preparation; settings: KRP buffer, […] Na+; species of peptide not indicated; ref Dumont et al.[25]
Source text: as §1

[2] = target: calf hippocampus membrane preparation; settings: Krebs–Ringer/20 mM HEPES, 137 mM Na+; species of peptide not indicated; ref Czerwiec et al.[34]
Source text: as §1

Molecule: [^125I]NPY: iodine-125 labeled derivative of NPY; species human or not indicated
Kd (pY2R): 0.58 nM

Molecule: [^125I]PYY: iodine-125 labeled derivative of PYY; species porcine or not indicated
Kd (pY2R): 0.27 nM

IC50 (Y2R; ref Shoblock et al.[39]): 8.5 nM | IC50 (Y2R; ref Swanson et al.[59]): 6 nM
Molecule: CCN(CC)C(=O)C(c1ccccc1)N1CCN(c2ccc(NC(=O)c3ccccc3-c3cccnc3)cc2F)CC1 (stereo not shown) [JNJ31020028, N-(4–4-[2-(diethylamino)-2-oxo-1-phenylethyl]piperazin-1-yl-3-fluorophenyl)-2-pyridin-3-ylbenzamide]

Molecule: pancreatic polypeptide [PP]
YR binding preference (Y1R, Y2R, Y4R, Y5R): clear preference for Y4R over the other YRs

Molecule: [^125I]PYY (3–36): iodine-125 labeled derivative of PYY
Kd [1]: 0.013 nM

Kd [2]: 0.7 nM
Molecule: N-[^3H]propionyl-NPY: tritiated NPY derivative, most likely [^3H]propionylated at the ε-amino group of Lys^4
